# Reference: patent US9469615B2, “Quinoxalines and AZA-quinoxalines as CRTH2 receptor modulators” (Merck Sharp & Dohme Corp., priority 2010, dated 2016)
# Target: T1, hCRTH2 (Homo sapiens, UniProt Q9Y5Y4)
# T1 construct: expressed in transfected cells; host or cells: HEK (human embryonic kidney) cells expressing hCRTH2; membrane preparation
# T1 sequence (Q9Y5Y4 1-395): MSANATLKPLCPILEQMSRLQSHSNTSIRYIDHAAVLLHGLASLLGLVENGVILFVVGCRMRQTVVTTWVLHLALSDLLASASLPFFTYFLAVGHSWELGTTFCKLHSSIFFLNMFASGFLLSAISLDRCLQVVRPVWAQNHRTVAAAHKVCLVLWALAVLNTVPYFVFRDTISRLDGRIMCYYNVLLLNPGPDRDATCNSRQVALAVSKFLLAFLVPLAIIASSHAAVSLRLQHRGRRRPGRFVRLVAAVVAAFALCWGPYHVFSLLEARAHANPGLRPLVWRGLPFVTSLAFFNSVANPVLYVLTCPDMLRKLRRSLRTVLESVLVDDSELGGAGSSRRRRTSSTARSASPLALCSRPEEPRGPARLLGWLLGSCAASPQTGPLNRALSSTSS
# Experiment: Radioligand binding assay ([3H]PGD2 competition, HEK-hCRTH2 membranes)
# Details: [3H]PGD2 binding, values in text
# Outline: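 Competition against 3.0 nM [3H]PGD2 was run for 60 min at room temperature in pH 7.4 Tris-HCl buffer with EDTA, 2 mM MnCl2 and 1% DMSO, using 8-20 μg HEK-hCRTH2 membrane protein. 10 μM PGD2 set non-specific binding; filter-bound counts were read by scintillation.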
row,Ki,SMILES
1,4.2 nM,"C[C@H](NC(=O)c1ccc2nc(-c3ccccc3)c(CCCCC(=O)O)nc2c1)c1cncc2ccccc12 [compound 637, (S)-5-(7-((1-(isoquinolin-4-yl)ethyl)carbamoyl)-3-phenylquinoxalin-2-yl)pentanoic acid]"
2,37.4 nM,"CC(c1ccon1)N(C)C(=O)c1ccc2nc(-c3ccc(Cl)cc3)c(CCCCC(=O)O)nc2c1 (stereo not shown) [compound 657, 5-(3-(4-chlorophenyl)-7-((1-(isoxazol-3-yl)ethyl)(methyl)carbamoyl)quinoxalin-2-yl) pentanoic acid]"

# Same assay, conditions: [3H]PGD2 competition, Table B
row,Ki,SMILES
1,0.1 to 2 nM,"Cc1ccc(C)c(N2CCN(C(=O)c3ccc4nc(-c5ccc(Cl)cc5)c(CCCCC(=O)O)nc4c3)CC2)c1 [compound 629, 5-(3-(4-chlorophenyl)-7-(4-(2,5-dimethylphenyl)piperazine-l-carbonyl)quinoxalin-2-yl)pentanoic acid]"
2,0.1 to 2 nM,"N#Cc1ccccc1N1CCN(C(=O)c2ccc3nc(-c4ccc(Cl)cc4)c(CCCCC(=O)O)nc3c2)CC1 [compound 631, 5-(3-(4-chlorophenyl)-7-(4-(2-cyanophenyl)piperazine-1-carbonyl)quinoxalin-2-yl)pentanoic acid]"
3,0.1 to 2 nM,"COc1ccccc1C1CCN(C(=O)c2ccc3nc(-c4ccc(Cl)cc4)c(CCCCC(=O)O)nc3c2)CC1 [compound 632, 5-(3-(4-chlorophenyl)-7-(4-(2-methoxyphenyl)piperidine-1-carbonyl)quinoxalin-2-yl)pentanoic acid]"
4,0.1 to 2 nM,"O=C(O)CCCCc1nc2cc(C(=O)N3CCC4(CC3)OCc3ccccc34)ccc2nc1-c1ccc(Cl)cc1 [compound 633, 5-(3-(4-chlorophenyl)-7-(3H-spiro[isobenzofuran-1,4′-piperidin]-1′-ylcarbonyl)quinoxalin-2-yl)pentanoic acid]"
5,2.1 to 20 nM,"O=C(O)CCCCc1nc2cc(C(=O)N3CCC4(CC3)CCN(c3ccccc3)C4=O)ccc2nc1-c1ccc(Cl)cc1 [compound 634, 5-(3-(4-chlorophenyl)-7-(1-oxo-2-phenyl-2,8-diazaspiro[4.5]decane-8-carbonyl)quinoxalin-2-yl)pentanoic acid]"
6,0.1 to 2 nM,"O=C(O)CCCCc1nc2cc(C(=O)N3CCN(c4cccc(Cl)c4Cl)CC3)ccc2nc1-c1ccc(Cl)cc1 [compound 635, 5-(3-(4-chlorophenyl)-7-(4-(2,3-dichlorophenyl)piperazine-1-carbonyl)quinoxalin-2-yl)pentanoic acid]"
7,0.1 to 2 nM,"Cc1ccc(N2CCN(C(=O)c3ccc4nc(-c5ccc(Cl)cc5)c(CCCCC(=O)O)nc4c3)CC2)c(C)c1 [compound 636, 5-(3-(4-chlorophenyl)-7-(4-(2,4-dimethylphenyl)piperazine-1-carbonyl)quinoxa1in-2-yl)pentanoic acid]"
8,2.1 to 20 nM,"C[C@H](NC(=O)c1ccc2nc(-c3ccccc3)c(CCCCC(=O)O)nc2c1)c1cncc2ccccc12 [compound 637, (S)-5-(7-((1-(isoquinolin-4-yl)ethyl)carbamoyl)-3-phenylquinoxalin-2-yl)pentanoic acid]"
9,201 to 700 nM,"C[C@@H](NC(=O)c1ccc2nc(-c3ccccc3)c(CCCCC(=O)O)nc2c1)c1cncc2ccccc12 [compound 638, (R)-5-(7-((1-(isoquinolin-4-yl)ethyl)carbamoyl)-3-phenylquinoxalin-2-yl)pentanoic acid]"
10,20.1 to 200 nM,"C[C@@H](NC(=O)c1ccc2nc(-c3ccccc3)c(CCCCC(=O)O)nc2c1)c1cccc2ncccc12 [compound 639, (R)-5-(3-phenyl-7-((1-(quinolin-5-yl)ethyl)carbamoyl)quinoxalin-2-yl)pentanoic acid]"
11,2.1 to 20 nM,"C[C@H](NC(=O)c1ccc2nc(-c3ccccc3)c(CCCCC(=O)O)nc2c1)c1cccc2ncccc12 [compound 640, (S)-5-(3-phenyl-7-((1-(quinolin-5-yl)ethyl)carbamoyl)quinoxalin-2-yl)pentanoic acid]"
12,2.1 to 20 nM,"O=C(O)CCCCc1nc2cc(C(=O)N[C@@H]3CCOc4ccc(F)cc43)ccc2nc1-c1ccccc1 [compound 641, (R)-5-(7-((6-fluoro-chroman-4-yl)carbamoyl)-3-phenylquinoxalin-2-yl)pentanoic acid]"
13,2.1 to 20 nM,"O=C(O)CCCCc1nc2cc(C(=O)N[C@@H]3CCOc4cc(F)c(F)cc43)ccc2nc1-c1ccccc1 [compound 642, (R)-5-(7-((6,7-difluorochroman-4-yl)carbamoyl)-3-phenylquinoxalin-2-yl)pentanoic acid]"
14,0.1 to 2 nM,"O=C(O)CCCCc1nc2cc(C(=O)N[C@@H]3CCOc4cc(F)ccc43)ccc2nc1-c1ccccc1 [compound 643, (R)-5-(7-((7-fluoro-chroman-4-yl)carbamoyl)-3-phenylquinoxalin-2-yl)pentanoic acid]"
15,2.1 to 20 nM,"C[C@@H](c1ccccc1)N(C)C(=O)c1ccc2nc(-c3ccc(Cl)cc3)c(CCCCC(=O)O)nc2c1 [compound 644, (S)-5-(3-(4-chloro-phenyl)-7-(methyl(1-phenylethyl)carbamoyl)quinoxalin-2-yl) pentanoic acid]"
16,2.1 to 20 nM,"O=C(O)CCCCc1nc2cc(C(=O)N3CCCCC3c3ccccc3)ccc2nc1-c1ccc(Cl)cc1 (stereo not shown) [compound 645, 5-(3-(4-chlorophenyl)-7-(2-phenylpiperidine-1-carbonyl)quinoxalin-2-yl)pentanoic acid]"

row,Ki,SMILES
1,2.1 to 20 nM,"O=C(O)CCCCc1nc2cc(C(=O)N3CCCC3c3ccccc3)ccc2nc1-c1ccc(Cl)cc1 (stereo not shown) [compound 646, 5-(3-(4-chlorophenyl)-7-(2-phenylpyrrolidine-1-carbonyl)quinoxalin-2-yl)pentanoic acid]"
2,20.1 to 200 nM,"O=C(O)CCCCc1nc2cc(C(=O)N3CCCCC3c3ccccn3)ccc2nc1-c1ccc(Cl)cc1 (stereo not shown) [compound 647, 5-(3-(4-chlorophenyl)-7-(2-(pyridin-2-yl)piperidine-1-carbonyl)quinoxalin-2-yl)pentanoic acid]"
3,2.1 to 20 nM,"O=C(O)CCCCc1nc2cc(C(=O)N3CCC3c3ccccc3)ccc2nc1-c1ccc(Cl)cc1 (stereo not shown) [compound 648, 5-(3-(4-chlorophenyl)-7-(2-phenylazetidine-1-carbonyl)quinoxalin-2-yl)pentanoic acid]"
4,20.1 to 200 nM,"CC(c1ccoc1)N(C)C(=O)c1ccc2nc(-c3ccc(Cl)cc3)c(CCCCC(=O)O)nc2c1 (stereo not shown) [compound 649, 5-(3-(4-chlorophenyl)-7-((1-(furan-3-yl)ethyl)(methyl)carbamoyl)quinoxalin-2-yl) pentanoic acid]"
5,20.1 to 200 nM,"O=C(O)CCCCc1nc2cc(C(=O)N3CCCC3c3ccncc3)ccc2nc1-c1ccc(Cl)cc1 (stereo not shown) [compound 650, 5-(3-(4-chlorophenyl)-7-(2-(pyridin-4-yl)pyrrolidine-1-carbonyl)quinoxalin-2-yl)pentanoic acid]"
6,20.1 to 200 nM,"Cn1ccnc1C1CCCCN1C(=O)c1ccc2nc(-c3ccc(Cl)cc3)c(CCCCC(=O)O)nc2c1 (stereo not shown) [compound 651, 5-(3-(4-chlorophenyl)-7-(2-(1-methyl-1H-imidazol-2-yl)piperidine-1-carbonyl)quinoxalin-2-yl)pentanoic acid]"
7,2.1 to 20 nM,"Cc1nonc1C1CCCN1C(=O)c1ccc2nc(-c3ccc(Cl)cc3)c(CCCCC(=O)O)nc2c1 (stereo not shown) [compound 652, 5-(3-(4-chlorophenyl)-7-(2-(4-methyl-1,2,5-oxadiazol-3-yl)pyrrolidine-1-carbonyl)quinoxalin-2-yl)pentanoic acid]"
8,201 to 700 nM,"O=C(O)CCCCc1nc2cc(C(=O)N3CCCCCC3c3cccnc3)ccc2nc1-c1ccc(Cl)cc1 (stereo not shown) [compound 653, 5-(3-(4-chlorophenyl)-7-(2-(pyridin-3-yl)azepane-1-carbonyl)quinoxalin-2-yl)pentanoic acid]"
9,20.1 to 200 nM,"O=C(O)CCCCc1nc2cc(C(=O)N3CCCCC3c3nccs3)ccc2nc1-c1ccc(Cl)cc1 (stereo not shown) [compound 654, 5-(3-(4-chlorophenyl)-7-(2-(thiazol-2-yl)piperidine-1-carbonyl)quinoxalin-2-yl)pentanoic acid]"
10,2.1 to 20 nM,"Cc1csc(C(C)N(C)C(=O)c2ccc3nc(-c4ccc(Cl)cc4)c(CCCCC(=O)O)nc3c2)n1 (stereo not shown) [compound 655, 5-(3-(4-chlorophenyl)-7-(methyl(1-(4-methylthiazol-2-yl)ethyl)carbamoyl)quinoxalin-2-yl)pentanoic acid]"
11,2.1 to 20 nM,"O=C(O)CCCCc1nc2cc(C(=O)N3CCCC34CCc3cc(F)ccc34)ccc2nc1-c1ccc(Cl)cc1 (stereo not shown) [compound 656, 5-(3-(4-chlorophenyl)-7-(5-fluoro-2,3-dihydrospiro [indene-1,2′-pyrrolidin]-1′-ylcarbonyl)quinoxalin-2-yl)pentanoic acid]"
12,20.1 to 200 nM,"CC(c1ccon1)N(C)C(=O)c1ccc2nc(-c3ccc(Cl)cc3)c(CCCCC(=O)O)nc2c1 (stereo not shown) [compound 657, 5-(3-(4-chlorophenyl)-7-((1-(isoxazol-3-yl)ethyl)(methyl)carbamoyl)quinoxalin-2-yl) pentanoic acid]"
13,20.1 to 200 nM,"O=C(O)CCCCc1nc2cc(C(=O)N3CCCC34CCc3ccncc34)ccc2nc1-c1ccc(Cl)cc1 (stereo not shown) [compound 658, 5-(3-(4-chloro-phenyl)-7-(5,6-dihydrospiro [cyclopenta[c]pyridine-7,2′-pyrrolidin]-1′-ylcarbonyl)quinoxalin-2-yl)pentanoic acid]"
14,20.1 to 200 nM,"O=C(O)CCCCc1nc2cc(C(=O)N3CCCC3c3nccs3)ccc2nc1-c1ccc(Cl)cc1 (stereo not shown) [compound 659, 5-(3-(4-chlorophenyl)-7-(2-(thiazol-2-yl)pyrrolidine-1-carbonyl)quinoxalin-2-yl)pentanoic acid]"
15,20.1 to 200 nM,"Cc1noc(C2CCCCN2C(=O)c2ccc3nc(-c4ccc(Cl)cc4)c(CCCCC(=O)O)nc3c2)n1 (stereo not shown) [compound 660, 5-(3-(4-chlorophenyl)-7-(2-(3-methyl-1,2,4-oxadiazol-5-yl)piperidine-1-carbonyl)quinoxalin-2-yl)pentanoic acid]"

row,SMILES,Ki
1,O=C(O)CCCCc1nc2cc(C(=O)N3C[C@@H]4C[C@H]3CN4Cc3ccccc3)ccc2nc1-c1ccc(Cl)cc1 [compound 630],2.1 to 20 nM
